Where two headings read alike, the source gives them in different places.
Legend:
[1] = Storage stability of malathion prepared by the process of the invention, HPLC after storage (Example 7, Table IV); type: physicochemical
Method: The malathion prepared by the process of the invention was tested for storage stability. Malathion prepared by the process of the invention was stored under a variety of different temperature and humidity conditions for up to three (3) months. […] The purity of the sample was determined after storage using HPLC.
Table IV presents the analytical data showing storage of two, different batches of malathion after storage under a variety of different conditions.
MeOOSPO, MeOSSPO, malaxon, MeOOSPS, diethyl fumarate, dimethyl malathion, methyl malathion, O,O-methyl, ethyl S-(1,2-dicarboethoxy)ethyl phosphorodithioate, tetraethyl dithiosuccinate, isomalathion, malathion carboxylic acids, mercaptosuccinate and the tetraethyl thiodisuccinate were assayed for by HPLC. The mobile phase was a mixture of water, acetonitrile and methanol (480:370:150) and one drop of 85% phosphoric acid for each […] of mobile phase. Method validation was performed and system reproducibility, linearity, repeatability, intermediate precision, recovery of related compounds and sensitivity were assessed according to standard methology (U.S. Pharmacopeia, 2004, U.S. Pharmacopeial Convention, Inc., 12601 Twinbrook Parkway, Rockville, Md. 20852). If necessary, the mobile phase composition and/or flow rate were adjusted to meet the chromatographic parameters.

[2] = target: acetylcholinesterase (Homo sapiens, UniProt P22303); conditions: cited from earlier work
acetylcholinesterase, sequence (P22303 32-614): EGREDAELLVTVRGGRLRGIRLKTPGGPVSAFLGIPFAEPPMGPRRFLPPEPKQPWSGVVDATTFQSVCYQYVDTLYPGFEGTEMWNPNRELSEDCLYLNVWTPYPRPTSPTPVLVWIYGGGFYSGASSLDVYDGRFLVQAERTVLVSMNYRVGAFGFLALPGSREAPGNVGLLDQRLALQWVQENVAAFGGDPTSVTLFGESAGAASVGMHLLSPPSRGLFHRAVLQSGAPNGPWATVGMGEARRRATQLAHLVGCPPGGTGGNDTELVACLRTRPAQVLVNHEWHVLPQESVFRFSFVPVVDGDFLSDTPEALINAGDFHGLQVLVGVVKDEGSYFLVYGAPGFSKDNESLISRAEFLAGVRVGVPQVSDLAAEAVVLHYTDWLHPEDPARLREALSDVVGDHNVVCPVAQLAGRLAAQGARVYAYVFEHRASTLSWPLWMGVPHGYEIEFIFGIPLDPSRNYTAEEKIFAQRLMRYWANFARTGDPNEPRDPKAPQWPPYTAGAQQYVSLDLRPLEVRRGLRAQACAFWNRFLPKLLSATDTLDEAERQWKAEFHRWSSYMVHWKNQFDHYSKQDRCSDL

[3] = test system: people; conditions: after spraying during insect eradication programs; cited from earlier work
[4] = can cause death from hypoxia; cited from earlier work
[5] = test system: cholinesterase enzymes; conditions: cited from earlier work
[6] = cited from earlier work
[7] = test system: mice; conditions: after storage for 6 months at 40° C.; cited from earlier work
[8] = Storage at 25° C., 60% relative humidity for 3 months
[9] = Storage at 30° C. and 60% relative humidity for 3 months
[10] = Storage at 40° C. and 75% relative humidity for 3 months

## CCOC(=O)CC(SP(=S)(OC)OC)C(=O)OCC (centres unmarked) [Batch I, [(dimethoxyphosphinothioyl)thio]butanedioic acid diethyl ester]
[1]; Baseline, time 0
  Diethyl fumarate in malathion: <0.01 % (w/w)
  Dimethyl malathion in malathion: <0.02 % (w/w)
  Malaoxon in malathion: <0.05 % (w/w)
  Malathion Purity: 99.5 % (w/w)
  MeOOSPO in malathion: <0.04 % (w/w)
  MeOOSPS in malathion: 0.1 % (w/w)
  MeOSSPO in malathion: <0.02 % (w/w)
  Methyl malathion in malathion: 0.06 % (w/w)
[1]; Storage at 5° C. for 3 months
  Diethyl fumarate in malathion: <0.01 % (w/w)
  Dimethyl malathion in malathion: <0.02 % (w/w)
  Malaoxon in malathion: <0.02 % (w/w)
  Malathion Purity: 99.7 % (w/w)
  MeOOSPO in malathion: <0.04 % (w/w)
  MeOOSPS in malathion: 0.1 % (w/w)
  MeOSSPO in malathion: <0.02 % (w/w)
  Methyl malathion in malathion: 0.06 % (w/w)
[1]; [8]
  Diethyl fumarate in malathion: <0.01 % (w/w)
  Dimethyl malathion in malathion: <0.02 % (w/w)
  Malaoxon in malathion: <0.02 % (w/w)
  Malathion Purity: 99.0 % (w/w)
  MeOOSPO in malathion: <0.04 % (w/w)
  MeOOSPS in malathion: 0.1 % (w/w)
  MeOSSPO in malathion: <0.02 % (w/w)
  Methyl malathion in malathion: 0.06 % (w/w)
[1]; [9]
  Diethyl fumarate in malathion: <0.01 % (w/w)
  Dimethyl malathion in malathion: <0.02 % (w/w)
  Malaoxon in malathion: <0.02 % (w/w)
  Malathion Purity: 99.0 % (w/w)
  MeOOSPO in malathion: <0.04 % (w/w)
  MeOOSPS in malathion: 0.1 % (w/w)
  MeOSSPO in malathion: <0.02 % (w/w)
  Methyl malathion in malathion: 0.06 % (w/w)
[1]; [10]
  Diethyl fumarate in malathion: <0.02 % (w/w)
  Dimethyl malathion in malathion: <0.02 % (w/w)
  Malaoxon in malathion: <0.05 % (w/w)
  Malathion Purity: 97.5 % (w/w)
  MeOOSPO in malathion: 0.05 % (w/w)
  MeOOSPS in malathion: 0.2 % (w/w)
  MeOSSPO in malathion: <0.02 % (w/w)
  Methyl malathion in malathion: 0.06 % (w/w)

## CCOC(=O)CC(SP(=O)(OC)SC)C(=O)OCC (centres unmarked) [Isomalathion]
[2]
  activity against acetylcholinesterase as compared with malathion: approximately 1,000 times
[3]
  death in people: cause death in people
[4]
  pulmonary toxicity: exhibit pulmonary toxicity

## CCOC(=O)CC(SP(=S)(OC)OC)C(=O)OCC (centres unmarked) [Batch II, [(dimethoxyphosphinothioyl)thio]butanedioic acid diethyl ester]
[1]; Baseline, time 0
  Diethyl fumarate in malathion: <0.06 % (w/w)
  Dimethyl malathion in malathion: <0.02 % (w/w)
  Malaoxon in malathion: <0.05 % (w/w)
  Malathion Purity: 99.5 % (w/w)
  MeOOSPO in malathion: <0.04 % (w/w)
  MeOOSPS in malathion: 0.09 % (w/w)
  MeOSSPO in malathion: <0.02 % (w/w)
  Methyl malathion in malathion: 0.08 % (w/w)
[1]; Storage at 5° C. for 3 months
  Diethyl fumarate in malathion: <0.01 % (w/w)
  Dimethyl malathion in malathion: <0.02 % (w/w)
  Malaoxon in malathion: <0.05 % (w/w)
  Malathion Purity: 99.7 % (w/w)
  MeOOSPO in malathion: <0.04 % (w/w)
  MeOOSPS in malathion: 0.1 % (w/w)
  MeOSSPO in malathion: <0.09 % (w/w)
  Methyl malathion in malathion: 0.07 % (w/w)
[1]; [8]
  Diethyl fumarate in malathion: <0.01 % (w/w)
  Dimethyl malathion in malathion: <0.02 % (w/w)
  Malaoxon in malathion: <0.05 % (w/w)
  Malathion Purity: 99.4 % (w/w)
  MeOOSPO in malathion: <0.04 % (w/w)
  MeOOSPS in malathion: 0.09 % (w/w)
  MeOSSPO in malathion: <0.02 % (w/w)
  Methyl malathion in malathion: 0.07 % (w/w)
[1]; [9]
  Diethyl fumarate in malathion: <0.01 % (w/w)
  Dimethyl malathion in malathion: <0.02 % (w/w)
  Malaoxon in malathion: <0.05 % (w/w)
  Malathion Purity: 99.1 % (w/w)
  MeOOSPO in malathion: <0.04 % (w/w)
  MeOOSPS in malathion: 0.1 % (w/w)
  MeOSSPO in malathion: <0.02 % (w/w)
  Methyl malathion in malathion: 0.08 % (w/w)
[1]; [10]
  Diethyl fumarate in malathion: <0.02 % (w/w)
  Dimethyl malathion in malathion: <0.02 % (w/w)
  Malaoxon in malathion: <0.05 % (w/w)
  Malathion Purity: 97.4 % (w/w)
  MeOOSPO in malathion: 0.05 % (w/w)
  MeOOSPS in malathion: 0.2 % (w/w)
  MeOSSPO in malathion: <0.02 % (w/w)
  Methyl malathion in malathion: 0.08 % (w/w)

## CCOC(=O)CC(SP(=S)(OC)OC)C(=O)OCC (centres unmarked) [malathion prepared by the process of the invention] [[(dimethoxyphosphinothioyl)thio]butanedioic acid diethyl ester]
[1]; Storage at 5° C. for 3 months
  Malathion Purity: greater than 98.5 % (w/w)
[1]; [8]
  Malathion Purity: greater than 98.5 % (w/w)
[1]; [9]
  Malathion Purity: greater than 98.5 % (w/w)

## CCOC(=O)CC(SP(=O)(OC)OC)C(=O)OCC (centres unmarked) [Malaoxon]
[5]
  inhibition of cholinesterase enzymes: inhibits cholinesterase enzymes

## CCOC(=O)CC(SP(=S)(OC)OC)C(=O)OCC (centres unmarked) [malathion, [(dimethoxyphosphinothioyl)thio]butanedioic acid diethyl ester]
[6]; after storage for 6 months at 40° C.
  isomalathion content of malathion: 0.45%
[6]; before storage
  isomalathion content of malathion: 0.2%
[7]
  increase in toxicity as measured by LD50 in mice: 35%

## COP(=O)(OC)SC [MeOOSPO, O,O,S-trimethyl phosphorothioate]
[4]
  pulmonary toxicity: exhibit pulmonary toxicity

## CCOC(=O)CC(SP(=S)(OC)OCC)C(=O)OCC (stereo not drawn) [O,O-methyl,ethyl-S-(1,2-dicarboethoxy)ethyl-phosphorodithioate]
[4]
  pulmonary toxicity: exhibit pulmonary toxicity

Source: patent publication US8957238B2, “Process for preparing malathion for pharmaceutical use” (priority 2005, dated 2015)
